Laboratory results published in US4619942A, “Inhibition of Respiratory Syncytial virus-induced cell fusion by amidino compounds” (priority 1983, dated 1986).
Like-named read-outs stand apart in the source and are kept apart here.

Key:
RS virus [1] = assay: RS virus cytopathology / syncytium formation in Hep-2 cells (Table 3); details: for Effect on RS virus cytopathology (syncytia) / Suppression of RS virus syncytia (in words): Hep-2; for Effect on RS virus cytopathology (syncytia): added 2 hour post infection
RS virus [2] = details: moi 1-2, control titers 1-5 × 10^7
cell growth = details: cited from earlier work

| Structure (SMILES) | Inhibition of RS virus / RS virus-induced cell fusion (general statement) (RS virus [1]) | Effect on RS virus cytopathology (syncytia) (RS virus [1]; 0.1 μM) | Effect on RS virus cytopathology (syncytia) (RS virus [1]; 1.0 μM) | Single cycle yield of RS virus (RS virus titers) (RS virus [2]; 10 μM) | Single cycle yield of RS virus (RS virus titers) (RS virus [2]; 100 μM) | Effect on RS virus cytopathology (syncytia) (RS virus [1]; 10 μM) | Suppression of RS virus syncytia (in words) (RS virus [1]) | Cytotoxicity relative to other compounds (in words) (Hep-2 cells) | also measured |
| --- | --- | --- | --- | --- | --- | --- | --- | --- | --- |
| N=C(N)c1ccc2[nH]ccc2c1 [Compound 9, 5-Amidinoindole] | inhibitively effective against RS virus | S | S | 2.9 × 10^7 TCID50/ml | 6.3 × 10^7 TCID50/ml | – | – | – | – |
| N=C(N)c1ccc2occc2c1 [Compound 10, 5-Amidinobenzofuran] | – | – | – | 1.1 × 10^7 TCID50/ml | 6.3 × 10^7 TCID50/ml | S | – | – | Effect on RS virus cytopathology (syncytia) (RS virus [1]; 100 μM): S |
| N=C(N)c1ccc2nc(CCc3nc4ccc(C(=N)N)cc4[nH]3)[nH]c2c1 [Compound 8, 1,2-Bis(5-amidino-2-benzimidazolyl)ethane] | inhibitively effective against RS virus | S | S | 6.3 × 10^7 TCID50/ml | 7.9 × 10^7 TCID50/ml | – | lower activity | – | – |
| N=C(N)c1ccc(Cn2ccc3cc(C(=N)N)ccc32)cc1 [Compound 13, 5-Amidino-1-(4-amidinobenzyl)indole] | inhibitively effective against RS virus | S | S | – | – | – | suppressed the appearance of the characteristic syncytia | intermediate in their cytotoxicity | – |
| N=C(N)c1ccc2nc[nH]c2c1 [Compound 11, 5-Amidinobenzimidazole] | inhibitively effective against RS virus | – | S | – | 8.7 × 10^7 TCID50/ml | S | suppressed the appearance of the characteristic syncytia | possessed the same or even less toxic activity than benzamidine | – |
| N=C(N)c1ccc(OCCCCCCCCOc2ccccc2)cc1 [Compound 4, 1-(4-Amidinophenoxy)-8-phenoxyoctane] | – | – | – | 3.5 × 10^7 TCID50/ml | – | S | – | – | – |
| Cn1ccc2cc(C(=N)N)ccc21 [Compound 12, 5-Amidino-1-methylindole] | inhibitively effective against RS virus | – | – | – | – | – | suppressed the appearance of the characteristic syncytia | intermediate in their cytotoxicity | – |
| N=C(N)c1ccccc1 [Compound 1, Benzamidine, reference compound] | – | – | – | – | – | – | – | – | Effect on RS virus cytopathology (syncytia) (RS virus [1]; 50 μM): S; Concentration reducing cell growth rates (cell growth): greater than 500 μM; Single cycle yield of RS virus (RS virus titers) (RS virus [2]; 50 μM): 1.1 × 10^7 TCID50/ml |
| N=C(N)c1ccc(OCCCCCCOc2ccccc2)cc1 [Compound 3, 1-(4-Amidinophenoxy-6-phenoxyhexane] | – | – | – | 3.5 × 10^7 TCID50/ml | – | S | – | – | Pattern of toxicity compared with Hep-2 cells (BHK-21): identical pattern of toxicity; Pattern of toxicity compared with Hep-2 cells (A549): identical pattern of toxicity; Pattern of toxicity compared with Hep-2 cells (CV-1): identical pattern of toxicity |
